This note sets out measurements from US9580498B2, “Monoclonal antibody for antagonizing and inhibiting binding of vascular endothelial growth factor to its receptor, and coding sequence” (SUZHOU STAINWEI BIOTECH INC., priority 2012, dated 2017).

Common to all, as to assay type: in vivo
The subject of one test is human HCT-8 colon cancer. Description: Transplanted human HCT-8 colon cancer in nude mice. The note with it: 5 mg/kg i.p. twice a week for 4 weeks; day 30. From the text:
The establishing method is basically the same as that in Example 10.
Observing the tumor growth of the nude mice inoculated with the human HCT-8 colon cancer and, when the tumor volume is about 50-100 mm^3, screening according to the size of the tumor volume, with the too large tumor and minor tumor not selected.
The above nude mice inoculated with human HCT-8 colon cancer were divided into the following seven groups (8 mice/group) for administration, intraperitoneally injecting twice a week successively for 4 weeks, and ending the test on the 30th day (D30).
(§1) At the end of experiment, tumors were removed after euthanasia, and the tumor weight were measured. The treatment effect was measured by the ratio of tumor size in the testing group (T) versus the control group (C), i.e. T/C %.
After the first treatment, the long and short diameters of the tumor were measured twice a week, and the tumor volume V and the relative tumor volume RTV thereof (Vt/VO) were calculated
At day 30, each animal was euthanized, and its tumor was removed and weighted and the average tumor weight in each group was calculated.

For test [1], the system named is human Ls-174-T colon cancer. Description: Transplanted human Ls-174-T colon cancer in nude mice. The note with it: 5 mg/kg i.p. twice a week for 4 weeks; day 29. On the procedure: Two nude mice were prepared to serve as tumor bearing mice. 1×10^7 of human Ls-174-T colon cancer cells (purchased from Cell Preservation Center of Shanghai Institutes for Biological Sciences, Chinese Academy of Sciences) at the log-growth cycle, or tumor mass in a size of about 1.5 mm^3, were inoculated subcutaneously into the right armpit of these two nude mice. […]
as §1
After the first administration, both the long and short diameters of tumors were recorded twice a week, and tumor volume (V) and the relative tumor volume (RTV) were calculated. The calculation formula for RTV is: RTV=Vt/Vo, where Vt is the tumor volume measured at each time point (day), and Vo is the initial (before administration) tumor volume.
At day 29, each animal was euthanized, and its tumor was removed and weighted and the average tumor weight in each group was calculated.

The subject of test [2] is human A673 rhabdomyosarcoma. The experiment in a line: Transplanted human A673 rhabdomyosarcoma in nude mice. The conditions noted are these: 5 mg/kg i.p. twice a week for 3 weeks; day 22.
Excerpt: The establishment of this tumor method is basically the same as that in Example 10.
Nude mice were inoculated with human A673 rhabdomyosarcoma. When the tumor volume reached about 50-100 mm^3, a screening was done and those mice bearing tumors too small or too large in size were excluded. The selected mice were then randomly divided into different groups for different doses of drugs
Dividing the above nude mice inoculated with the human A673 rhabdomyosarcoma into the following six groups (6 mice/group) for administration, intraperitoneally injecting twice a week successively for 3 weeks, and ending the test on the 22nd day (D22).
as §1
(§2) After the first administration, the long and short diameters of the tumor were measured twice a week, and the tumor volume (V) and the relative tumor volume RTV thereof (Vt/VO) were calculated.
At day 22, each animal was euthanized, and its tumor was removed and weighted and the average tumor weight in each group was calculated.

Test [3] has as its system human MDA-MB-231 breast cancer. The experiment in a line: Transplanted human MDA-MB-231 breast cancer in nude mice. The conditions noted are these: 5 mg/kg i.p. twice a week for 5 weeks; day 36.
Excerpt: The tumor model establishment is basically the same as that in Example 10.
Nude mice were inoculated with human MDA-MB-231 breast cancer. When the tumor volume reached about 50-100 mm^3, a screening was done and those mice bearing tumors too small or too large in size were excluded. The selected mice were then randomly divided into different groups for different doses of drugs
The above nude mice inoculated with human MDA-MB-231 breast cancer were divided into the following five treatment groups (7 mice/group). Antibodies were injected intraperitoneally twice a week for 5 weeks, and ending the test on the 36th day (D36).
as §1, §2
At day 36, each animal was euthanized, and its tumor was removed and weighted and the average tumor weight in each group was calculated.

Regarding `N.N.[Cl][Pt][Cl]` [cisplatin, reference compound], in the test with human HCT-8 colon cancer, the average tumor weight is reported as 1.201 g and the “tumor weight inhibition rate” value was 25.29%.

“Avastin: humanized anti-VEGF monoclonal antibody drug developed and produced by Roche/Genentech [reference compound]”: the average tumor weight amounted to 0.767 g in test [1], 3.323 g in test [2] and 0.543 g in test [3]. Further, the “tumor weight inhibition rate” value in test [1] turned out to be 74.05%; in test [2], 61.92%; in test [3], 38.99%.
